In ChEMBL document CHEMBL1908284, “Rational use of in vitro P-glycoprotein assays in drug discovery” (J Pharmacol Exp Ther, 2001):

What was measured:
[1] = molecular target: T1, ATP-dependent translocase ABCB1 (Homo sapiens, UniProt P08183); details: dog;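 for Ratio ATPase activity: Compound-stimulated ATPase activity measured in membrane preparations of MDR1-expressing Sf9 cells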
Description: (§1) Apparent permeability (Papp) from apical to basolateral side determined in MDR1-MDCKII cells

[2] = molecular target: T1, ATP-dependent translocase ABCB1; details: dog; remark: listed apart in the source
Description: (§2) Apparent permeability (Papp) from basolateral to apical side determined in MDR1-MDCKII cells

[3] = molecular target: T2, ATP-dependent translocase ABCB1 (MDR1) (Homo sapiens, UniProt P08183); assay: in vitro; details: dog
Description: as §2

[4] = molecular target: T2, ATP-dependent translocase ABCB1 (MDR1); assay: in vitro; details: dog; remark: listed apart in the source
Description: as §1

[5] = molecular target: T2, ATP-dependent translocase ABCB1 (MDR1); assay: in vitro; details: dog; remark: listed apart in the source
Description: Ratio of apparent permeability from basolateral to apical side over apical to basolateral side determined in MDR1-MDCKII cells

[6] = molecular target: T1, ATP-dependent translocase ABCB1; details: spodoptera frugiperda, sf9, 20 µM
Description: Drug-stimulated Pgp ATPase activity ratio determined in MDR1-Sf9 cell membranes with test compound at a concentration of 20uM

[7] = molecular target: T1, ATP-dependent translocase ABCB1; assay: TP_TRANSPORTER: ATP hydrolysis in MDR1-expressing Sf9 cells; assay type: functional

T1 sequence (P08183 whole entry): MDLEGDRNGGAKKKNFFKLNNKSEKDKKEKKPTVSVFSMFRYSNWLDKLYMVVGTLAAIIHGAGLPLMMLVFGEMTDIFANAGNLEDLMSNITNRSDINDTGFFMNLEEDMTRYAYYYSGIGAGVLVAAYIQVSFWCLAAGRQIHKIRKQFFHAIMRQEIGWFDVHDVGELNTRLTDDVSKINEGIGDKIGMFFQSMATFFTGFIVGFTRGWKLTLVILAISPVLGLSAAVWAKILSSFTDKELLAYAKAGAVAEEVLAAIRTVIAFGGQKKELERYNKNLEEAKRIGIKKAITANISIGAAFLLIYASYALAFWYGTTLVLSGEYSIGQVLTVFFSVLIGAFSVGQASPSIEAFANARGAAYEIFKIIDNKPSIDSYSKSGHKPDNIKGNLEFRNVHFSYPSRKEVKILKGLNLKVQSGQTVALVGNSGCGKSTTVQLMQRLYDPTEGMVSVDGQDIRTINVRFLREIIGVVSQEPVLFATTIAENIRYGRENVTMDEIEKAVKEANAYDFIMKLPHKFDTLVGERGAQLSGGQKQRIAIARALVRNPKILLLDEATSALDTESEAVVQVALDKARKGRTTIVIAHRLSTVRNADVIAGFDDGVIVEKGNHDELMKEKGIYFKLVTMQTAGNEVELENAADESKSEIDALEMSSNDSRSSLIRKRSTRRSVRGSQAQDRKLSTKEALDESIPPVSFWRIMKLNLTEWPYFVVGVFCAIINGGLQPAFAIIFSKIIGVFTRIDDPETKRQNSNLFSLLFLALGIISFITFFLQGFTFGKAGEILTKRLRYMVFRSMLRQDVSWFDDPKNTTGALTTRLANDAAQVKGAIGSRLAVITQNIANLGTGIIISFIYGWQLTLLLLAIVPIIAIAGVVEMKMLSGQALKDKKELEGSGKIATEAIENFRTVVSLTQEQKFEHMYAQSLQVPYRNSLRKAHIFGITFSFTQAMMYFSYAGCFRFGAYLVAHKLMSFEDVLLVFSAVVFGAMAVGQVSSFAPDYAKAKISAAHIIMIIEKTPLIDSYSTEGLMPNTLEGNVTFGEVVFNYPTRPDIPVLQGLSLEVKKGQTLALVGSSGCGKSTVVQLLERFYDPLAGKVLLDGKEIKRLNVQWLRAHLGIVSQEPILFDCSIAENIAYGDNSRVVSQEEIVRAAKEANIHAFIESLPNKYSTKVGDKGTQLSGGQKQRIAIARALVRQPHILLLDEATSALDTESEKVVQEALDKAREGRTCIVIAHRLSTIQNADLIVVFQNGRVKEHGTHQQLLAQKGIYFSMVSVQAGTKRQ
T2 sequence (P08183 whole entry): as above

`CC(C)CN(C[C@@H](O)[C@H](Cc1ccccc1)NC(=O)O[C@H]1CCOC1)S(=O)(=O)c1ccc(N)cc1` gave a Papp ([1]; mdr1-mdckii) of 2.17 ×10⁻⁶ cm/s, a Papp ([2]; mdr1-mdckii) of 70.3 ×10⁻⁶ cm/s and a Papp B→A ([3]; MDCK-MDR1, Papp) of 98.7 ×10⁻⁶ cm/s. The Papp A→B ([4]; MDCK-MDR1, Papp) was 3.73 ×10⁻⁶ cm/s.

Work on `OC[C@@H](O)[C@@H](O)[C@H](O)[C@H](O)CO` [MANNITOL] yielded a Papp ([1]; mdr1-mdckii) of 1.13 ×10⁻⁶ cm/s, an efflux ratio ([5]; MDCK-MDR1, Ratio_Papp) of 0.82 and a Ratio_ATPase activity [6] of 1.25. It also gave a Papp ([2]; mdr1-mdckii) of 0.915 ×10⁻⁶ cm/s, a Papp B→A ([3]; MDCK-MDR1, Papp) of 0.915 ×10⁻⁶ cm/s and a Papp A→B ([4]; MDCK-MDR1, Papp) of 1.13 ×10⁻⁶ cm/s.

In the case of `Cc1ncc2n1-c1ccc(Cl)cc1C(c1ccccc1F)=NC2` [MIDAZOLAM], the Activity [7] was “substrate [+]”, the efflux ratio ([5]; MDCK-MDR1) was 0.81 and the Ratio_ATPase activity [6] was 3.82. It also gave a Papp B→A ([3]; MDCK-MDR1) of 56.4 ×10⁻⁶ cm/s and a Papp A→B ([4]; MDCK-MDR1) of 70.1 ×10⁻⁶ cm/s.

In the case of `CN(C)C(=O)Oc1cccc([N+](C)(C)C)c1.[Br-]` [NEOSTIGMINE BROMIDE], the Activity [7] was “is not a substrate [-]”, the efflux ratio ([5]; MDCK-MDR1) was 1.81 and the Ratio_ATPase activity [6] was 1.06. It also gave a Papp B→A ([3]; MDCK-MDR1) of 1.37 ×10⁻⁶ cm/s and a Papp A→B ([4]; MDCK-MDR1) of 0.758 ×10⁻⁶ cm/s.

`COC(=O)C1=C(C)NC(C)=C(C(=O)OCCN(C)Cc2ccccc2)C1c1cccc([N+](=O)[O-])c1` (stereo unspecified) [NICARDIPINE] was tested, and the Activity [7] was “substrate [+]”, the efflux ratio ([5]; MDCK-MDR1, Ratio_Papp) was 1.08 and the Ratio_ATPase activity [6] was 5.39. For the same compound, the Papp B→A ([3]; MDCK-MDR1, Papp) was 66.1 ×10⁻⁶ cm/s and the Papp A→B ([4]; MDCK-MDR1, Papp) was 61.4 ×10⁻⁶ cm/s.

`CCOC(=O)C1=C(C)NC(C)=C(C(=O)OC)C1c1cccc([N+](=O)[O-])c1` (stereo unspecified) [NITRENDIPINE] was tested, and the Activity [7] was “substrate [+]”, the efflux ratio ([5]; MDCK-MDR1, Ratio_Papp) was 0.8 and the Ratio_ATPase activity [6] was 3.22. It also gave a Papp B→A ([3]; MDCK-MDR1, Papp) of 48.3 ×10⁻⁶ cm/s and a Papp A→B ([4]; MDCK-MDR1, Papp) of 60.4 ×10⁻⁶ cm/s.

With `CC(=O)O[C@H]1C(=O)[C@@]2(C)[C@H]([C@H](OC(=O)c3ccccc3)[C@]3(O)C[C@H](OC(=O)[C@H](O)[C@@H](NC(=O)c4ccccc4)c4ccccc4)C(C)=C1C3(C)C)[C@]1(OC(C)=O)CO[C@@H]1C[C@@H]2O` [PACLITAXEL] the Activity [7] was “substrate [+]”, the efflux ratio ([5]; MDCK-MDR1, Ratio_Papp) was over 108 and the Ratio_ATPase activity [6] was 2.63. It also gave a Papp B→A ([3]; MDCK-MDR1, Papp) of 13.5 ×10⁻⁶ cm/s and a Papp A→B ([4]; MDCK-MDR1, Papp) of under 0.125 ×10⁻⁶ cm/s.

For `CC(C)NCC(O)COc1cccc2ccccc12` (stereo unspecified) [PROPRANOLOL], the Papp ([1]; MDCK-MDR1) was 49.6 ×10⁻⁶ cm/s, the efflux ratio ([5]; MDCK-MDR1, Ratio_Papp) was 1.04 and the Ratio_ATPase activity [6] was 1.33. For the same compound, the Papp ([2]; MDCK-MDR1) was 51.4 ×10⁻⁶ cm/s, the Papp B→A ([3]; MDCK-MDR1, Papp) was 51.4 ×10⁻⁶ cm/s and the Papp A→B ([4]; MDCK-MDR1, Papp) was 49.6 ×10⁻⁶ cm/s.

For `COc1ccc(C[C@H](N)C(=O)N[C@H]2[C@@H](O)[C@H](n3cnc4c(N(C)C)ncnc43)O[C@@H]2CO)cc1` [PUROMYCIN], the Activity [7] was “is not a substrate [-]”, the efflux ratio ([5]; MDCK-MDR1, Ratio_Papp) was 3.1 and the Ratio_ATPase activity [6] was 1.21. For the same compound, the Papp B→A ([3]; MDCK-MDR1, Papp) was 3.56 ×10⁻⁶ cm/s and the Papp A→B ([4]; MDCK-MDR1, Papp) was 1.15 ×10⁻⁶ cm/s.

For `COc1cc(Cc2cnc(N)nc2N)cc(OC)c1OC` [TRIMETHOPRIM], the Activity [7] was “substrate [+]”, the efflux ratio ([5]; MDCK-MDR1, Ratio_Papp) was 3.61 and the Ratio_ATPase activity [6] was 3.61. For the same compound, the Papp B→A ([3]; MDCK-MDR1, Papp) was 26.7 ×10⁻⁶ cm/s and the Papp A→B ([4]; MDCK-MDR1, Papp) was 7.39 ×10⁻⁶ cm/s.

With `CC[C@]1(O)C[C@H]2CN(CCc3c([nH]c4ccccc34)[C@@](C(=O)OC)(c3cc4c(cc3OC)N(C=O)[C@H]3[C@@](O)(C(=O)OC)[C@H](OC(C)=O)[C@]5(CC)C=CCN6CC[C@]43[C@@H]65)C2)C1` [VINCRISTINE] the Activity [7] was “is not a substrate [-]”, the efflux ratio ([5]; MDCK-MDR1, Ratio_Papp) was 6.31 and the Ratio_ATPase activity [6] was 1.46. It also gave a Papp B→A ([3]; MDCK-MDR1, Papp) of 1.49 ×10⁻⁶ cm/s and a Papp A→B ([4]; MDCK-MDR1, Papp) of 0.236 ×10⁻⁶ cm/s.

`CCC1=C[C@@H]2CN(C1)Cc1c([nH]c3ccccc13)[C@@](C(=O)OC)(c1cc3c(cc1OC)N(C)[C@H]1[C@@](O)(C(=O)OC)[C@H](OC(C)=O)[C@]4(CC)C=CCN5CC[C@]31[C@@H]54)C2` [VINORELBINE] was tested, and the Activity [7] was “is not a substrate [-]”, the efflux ratio ([5]; MDCK-MDR1, Ratio_Papp) was 69.8 and the Ratio_ATPase activity [6] was 1.15. For the same compound, the Papp B→A ([3]; MDCK-MDR1, Papp) was 17.6 ×10⁻⁶ cm/s and the Papp A→B ([4]; MDCK-MDR1, Papp) was 0.252 ×10⁻⁶ cm/s.
